In article PMC5064435, “Inhibition of endoplasmic reticulum glucosidases is required for in vitro and in vivo dengue antiviral activity by the iminosugar UV-4” (Antiviral Research, 2016):
Structures can show the parent of a compound that is named as a salt.

Assays:
[1] = molecular target: T1, Rat intestinal isomaltase (Rattus norvegicus, UniProt P23739); assay: enzyme inhibition assay; type: biochemical; conditions: read-out: IC50 ^a / UV-4B
T1 construct: gene Si; native rat intestinal enzyme; isomaltase (N-terminal) subunit of sucrase-isomaltase
T1 sequence (P23739 1-1013 limits assumed): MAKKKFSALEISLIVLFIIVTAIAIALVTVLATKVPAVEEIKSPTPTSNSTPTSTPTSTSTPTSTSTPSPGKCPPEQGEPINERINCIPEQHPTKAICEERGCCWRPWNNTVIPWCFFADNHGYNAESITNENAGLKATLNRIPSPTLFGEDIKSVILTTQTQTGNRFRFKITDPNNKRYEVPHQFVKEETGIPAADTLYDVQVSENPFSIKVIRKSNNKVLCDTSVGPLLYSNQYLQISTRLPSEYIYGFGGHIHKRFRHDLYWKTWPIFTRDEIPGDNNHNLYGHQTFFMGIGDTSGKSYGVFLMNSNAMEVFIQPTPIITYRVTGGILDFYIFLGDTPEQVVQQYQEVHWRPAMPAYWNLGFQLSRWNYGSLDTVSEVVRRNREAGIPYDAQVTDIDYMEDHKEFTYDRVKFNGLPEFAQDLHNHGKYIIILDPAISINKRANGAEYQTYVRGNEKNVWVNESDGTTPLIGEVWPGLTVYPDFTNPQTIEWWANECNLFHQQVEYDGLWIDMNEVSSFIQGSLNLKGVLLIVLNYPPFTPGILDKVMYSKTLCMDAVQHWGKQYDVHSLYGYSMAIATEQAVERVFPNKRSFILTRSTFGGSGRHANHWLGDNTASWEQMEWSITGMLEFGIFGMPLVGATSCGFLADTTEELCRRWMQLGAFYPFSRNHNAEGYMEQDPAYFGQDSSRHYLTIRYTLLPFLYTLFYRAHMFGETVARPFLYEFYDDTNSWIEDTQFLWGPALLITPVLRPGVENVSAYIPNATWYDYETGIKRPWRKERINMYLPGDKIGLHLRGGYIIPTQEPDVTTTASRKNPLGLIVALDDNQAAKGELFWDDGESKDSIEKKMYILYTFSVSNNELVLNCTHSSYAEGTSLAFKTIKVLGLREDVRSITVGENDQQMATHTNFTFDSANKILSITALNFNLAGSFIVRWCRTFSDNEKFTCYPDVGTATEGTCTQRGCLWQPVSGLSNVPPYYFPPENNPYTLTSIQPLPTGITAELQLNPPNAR
From the text: enzyme inhibition assay on Rat intestinal isomaltase

[2] = molecular target: T2, α-glucosidase I (human MDMΦs) (Homo sapiens, UniProt Q13724); assay: free oligosaccharide (Glc3Man5GlcNAc1) accumulation in human MDMΦs; type: cell-based; conditions: […] h treatment of uninfected cells
T2 construct: gene MOGS; endogenous enzyme in primary human monocyte-derived macrophages
T2 sequence (Q13724 1-837): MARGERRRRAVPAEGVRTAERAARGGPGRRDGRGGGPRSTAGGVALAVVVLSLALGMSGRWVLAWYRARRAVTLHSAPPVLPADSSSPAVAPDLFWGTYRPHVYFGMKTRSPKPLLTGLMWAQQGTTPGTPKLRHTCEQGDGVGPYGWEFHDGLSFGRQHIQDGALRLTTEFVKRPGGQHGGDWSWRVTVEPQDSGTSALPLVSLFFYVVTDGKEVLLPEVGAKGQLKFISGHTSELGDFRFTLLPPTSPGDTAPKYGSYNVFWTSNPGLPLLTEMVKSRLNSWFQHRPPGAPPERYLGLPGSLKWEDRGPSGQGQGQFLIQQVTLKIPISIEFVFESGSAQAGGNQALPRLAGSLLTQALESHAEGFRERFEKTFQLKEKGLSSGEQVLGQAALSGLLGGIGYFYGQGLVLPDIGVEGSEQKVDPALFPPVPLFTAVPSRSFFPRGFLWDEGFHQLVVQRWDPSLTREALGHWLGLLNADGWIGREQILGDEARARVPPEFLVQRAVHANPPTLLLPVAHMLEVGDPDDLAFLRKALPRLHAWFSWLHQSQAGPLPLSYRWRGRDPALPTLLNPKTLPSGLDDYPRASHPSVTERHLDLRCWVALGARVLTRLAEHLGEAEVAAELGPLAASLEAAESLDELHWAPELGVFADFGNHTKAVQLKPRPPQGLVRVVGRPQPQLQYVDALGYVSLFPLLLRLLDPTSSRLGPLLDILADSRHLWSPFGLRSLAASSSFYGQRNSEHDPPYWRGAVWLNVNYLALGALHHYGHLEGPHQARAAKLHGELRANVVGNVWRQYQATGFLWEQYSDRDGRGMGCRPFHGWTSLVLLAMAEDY

[3] = molecular target: T3, Rat intestinal sucrase (Rattus norvegicus, UniProt P23739); assay: enzyme inhibition assay; type: biochemical; conditions: read-out: IC50 ^a / UV-4B
T3 construct: gene Si; native rat intestinal enzyme; sucrase (C-terminal) subunit of sucrase-isomaltase
T3 sequence (P23739 1014-1841 limits assumed): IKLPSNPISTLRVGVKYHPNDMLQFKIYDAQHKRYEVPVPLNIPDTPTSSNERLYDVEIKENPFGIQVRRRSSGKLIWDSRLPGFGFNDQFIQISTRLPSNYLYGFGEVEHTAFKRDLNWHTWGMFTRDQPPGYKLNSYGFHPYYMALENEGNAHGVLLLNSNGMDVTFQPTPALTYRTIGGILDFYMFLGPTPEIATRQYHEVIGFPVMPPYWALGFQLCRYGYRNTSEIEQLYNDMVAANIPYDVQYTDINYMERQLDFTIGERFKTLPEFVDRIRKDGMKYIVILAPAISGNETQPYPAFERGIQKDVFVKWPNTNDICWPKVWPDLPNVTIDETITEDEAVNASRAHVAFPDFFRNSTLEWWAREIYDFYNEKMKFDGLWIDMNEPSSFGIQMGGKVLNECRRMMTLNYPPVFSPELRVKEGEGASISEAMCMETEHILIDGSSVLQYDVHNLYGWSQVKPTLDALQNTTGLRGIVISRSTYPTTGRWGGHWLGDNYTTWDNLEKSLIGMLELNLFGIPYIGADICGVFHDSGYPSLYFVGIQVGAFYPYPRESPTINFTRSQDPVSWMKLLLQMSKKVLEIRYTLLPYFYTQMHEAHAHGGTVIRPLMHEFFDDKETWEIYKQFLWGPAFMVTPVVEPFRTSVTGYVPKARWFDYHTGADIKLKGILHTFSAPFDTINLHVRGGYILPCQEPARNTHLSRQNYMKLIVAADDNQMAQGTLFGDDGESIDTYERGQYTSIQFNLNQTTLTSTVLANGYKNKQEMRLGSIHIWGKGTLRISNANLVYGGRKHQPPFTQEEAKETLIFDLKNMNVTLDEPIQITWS
From the text: enzyme inhibition assay on Rat intestinal sucrase

[4] = molecular target: T4, Human lysosome (α-glucosidase) (Homo sapiens, UniProt P10253); assay: enzyme inhibition assay; type: biochemical; conditions: read-out: IC50 ^a / UV-4B
T4 construct: gene GAA
From the text: enzyme inhibition assay on Human lysosome (α-glucosidase)

[5] = molecular target: T5, Mouse ER α-glucosidase II (Mus musculus, UniProt Q8BHN3); assay: enzyme inhibition assay, purified enzyme; type: biochemical; conditions: read-out: IC50 ^a / UV-4B
T5 construct: gene Ganab; with Glucosidase 2 subunit beta
T5 sequence (Q8BHN3 33-944): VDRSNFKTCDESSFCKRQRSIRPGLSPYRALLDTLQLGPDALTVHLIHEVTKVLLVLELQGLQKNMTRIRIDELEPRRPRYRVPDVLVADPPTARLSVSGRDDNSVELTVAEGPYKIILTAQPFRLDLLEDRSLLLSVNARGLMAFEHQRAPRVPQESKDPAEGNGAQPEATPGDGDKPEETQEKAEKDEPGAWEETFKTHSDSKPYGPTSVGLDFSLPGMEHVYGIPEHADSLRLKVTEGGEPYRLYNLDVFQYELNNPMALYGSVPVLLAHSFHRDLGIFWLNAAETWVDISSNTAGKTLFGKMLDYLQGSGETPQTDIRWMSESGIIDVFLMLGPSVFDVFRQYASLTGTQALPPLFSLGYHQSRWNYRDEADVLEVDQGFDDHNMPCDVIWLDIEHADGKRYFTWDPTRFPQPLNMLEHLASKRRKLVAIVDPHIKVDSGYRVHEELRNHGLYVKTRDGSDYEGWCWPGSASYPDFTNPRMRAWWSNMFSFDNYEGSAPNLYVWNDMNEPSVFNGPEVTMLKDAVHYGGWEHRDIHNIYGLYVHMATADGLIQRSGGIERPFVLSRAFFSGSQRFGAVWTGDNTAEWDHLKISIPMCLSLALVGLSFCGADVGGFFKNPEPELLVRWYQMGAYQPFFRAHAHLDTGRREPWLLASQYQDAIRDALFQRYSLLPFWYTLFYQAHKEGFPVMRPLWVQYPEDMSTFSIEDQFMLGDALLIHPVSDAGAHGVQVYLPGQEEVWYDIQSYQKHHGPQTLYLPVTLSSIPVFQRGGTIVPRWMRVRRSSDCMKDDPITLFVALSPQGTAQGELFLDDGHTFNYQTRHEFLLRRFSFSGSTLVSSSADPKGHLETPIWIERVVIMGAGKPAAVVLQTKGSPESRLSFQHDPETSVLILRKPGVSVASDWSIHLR
T5 sequence (O08795 15-521 partner): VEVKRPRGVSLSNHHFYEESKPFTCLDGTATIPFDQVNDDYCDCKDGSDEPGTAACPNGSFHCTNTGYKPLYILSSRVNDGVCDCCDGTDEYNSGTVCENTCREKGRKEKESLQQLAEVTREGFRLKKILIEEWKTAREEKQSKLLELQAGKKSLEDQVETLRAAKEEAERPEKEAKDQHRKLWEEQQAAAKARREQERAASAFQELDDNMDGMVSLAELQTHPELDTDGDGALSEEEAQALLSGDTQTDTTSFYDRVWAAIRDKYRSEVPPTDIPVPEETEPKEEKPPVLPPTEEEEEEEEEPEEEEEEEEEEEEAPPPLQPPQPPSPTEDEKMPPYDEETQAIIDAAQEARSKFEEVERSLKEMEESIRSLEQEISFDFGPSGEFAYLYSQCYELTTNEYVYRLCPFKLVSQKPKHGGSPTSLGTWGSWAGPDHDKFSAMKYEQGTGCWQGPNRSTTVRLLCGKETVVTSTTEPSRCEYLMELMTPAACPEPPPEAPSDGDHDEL
From the text: enzyme inhibition assay, purified enzyme on Mouse ER α-glucosidase II

IC50 [1]: 1400 nM | IC50 [3]: 500 nM | IC50 [4]: 390 nM | IC50 [5]: 1800 nM
SMILES: COCCCCCCCCCN1C[C@H](O)[C@@H](O)[C@H](O)[C@H]1CO [UV-4B, N-(9′-methoxynonyl)-1-deoxynojirimycin hydrochloride]
free oligosaccharide (Glc3Man5GlcNAc1) accumulation in human MDMΦs [2]: UV-4B led to accumulation of FOS representative of inhibition of both α-glucosidases
